Read-outs that look alike come from different tables or passages of the source.
Tests used:
[1] = biological target: human Werner helicase (WRN, amino acids 517-1235 with L1074F point mutation) (Homo sapiens (Human), UniProt Q14191, L1074F); assay: WRN (BV08) ADP-Glo assay; assay type: biochemical; settings: human WRN (aa 517-1235, L1074F), read-out: ADP-Glo_hWRN_IC50
Description: Bovine skin gelatin (BSG), dimethyl sulfoxide (DMSO), Pluronic F-127 and tris(2-carboxyethyl)phosphine hydrochloride solution (TCEP) were purchased from Sigma-Aldrich (St. Louis, MO) at the highest level of purity possible. Bicine buffer solution was purchased from Alfa Aesar (Tewksbury, MA) and compound NSC-617145 was purchased from Tocris (Minneapolis, MN). DNA duplex was synthesized at BGI (Shenzhen, China) and was composed of strand 1 with the sequence 5′-[…]-3′ (SEQ ID NO.: 1) and strand 2 with the sequence 5′-[…]-3′ (SEQ ID NO.: 2). DNA strands were annealed by heating to 95° C. for 5 minutes followed by slow cooling to room temperature. Compounds in 100% DMSO (0.1 μl) were spotted into a 384-well white polystyrene Optiplate-384 (Perkin Elmer; Waltham, MA) assay plate using a LabCyte Echo 550 (Agilent; Santa Clara, CA). DMSO (0.1 μl) was added to columns 12, rows A-H and column 24, rows I-P for the maximum signal control. Compound NSC-617145 (0.1 μl) was added to columns 12, rows I-P and 24, rows A-H for the minimum signal control (100% inhibition). Compounds/DMSO were preincubated for 15 minutes at 25° C. with 5 μl 2×WRN (BV08), prepared as described below, in assay buffer containing 20 mM Bicine (pH=7.5), 1 mM MgCl2, 10 mM KCl, 0.1% Pluronic F-127, 0.005% BSG, 1 mM TCEP. The reaction was initiated by the addition of 5 μl 2× substrate mixture in assay buffer and incubated for 60 minutes at 25° C. The final concentrations of the assay components were 0.15 nM WRN, 5 μM ATP, and 0.1 nM DNA duplex. The final DMSO concentration was 1% and the reference compound concentration (NSC-617145) used for the minimal signal control was 20 μM. The reaction was stopped by the addition of the ADP-Glo Kit components (Promega; Madison, WI) as directed and the relative luminescence units (RLU) were read on an Envision 2104 (Perkin Elmer; Waltham, MA).
% inhibition calculation:
% INH=(RLU MAX−RLU sample)/(RLU MAX−RLU MIN))×100
Where RLU=relative luminescence units, sample=signal in sample well, and MIN and MAX are the respective minimum and maximum signal controls. Four-parameter IC50 fit equation:
Y=Bottom+(Top−Bottom)/(1+(IC50/X)^Hill Slope)
Where top and bottom are normally allowed to float but may be fixed at 100 or 0 respectively in a 3-parameter fit. Y is the % inhibition and X is the compound concentration.
Molecular Biology and virus production. The DNA encoding human Werner helicase (Uniprot Q14191, amino acids 517-1235 with L1074F point mutation) was generated with codon-optimization for E. coli expression and subcloned into the pFastBac vector with a TEV cleavable 8×His tag (WRN—BV08). The baculovirus from the expression plasmid WRN—BV08 was generated from transfection and amplification following the manufacturer's instructions.
Sf9 cells grown in SF900II media were infected with 1:200 WRN—BV08 P2 virus and incubated for protein expression for 72 h at 27° C. The WRN protein was purified using the following protocol. The cell pellets were thawed and resuspended in buffer A (50 mM Tris, pH 7.5, 500 mM NaCl, 1 mM TCEP, 10% Glycerol) supplemented with 0.5% CHAPS, 1 mM PMSF, […] Leupeptin, 1 μg/ml Pepstatin, and the Pierce Universal Nuclease and cocktail tablet. Cleared lysates were loaded onto a Ni Sepharose™ excel column and washed with buffer A and bound protein was eluted with buffer A supplemented with 300 mM imidazole. The eluted protein was dialyzed against buffer A and digested by His-tagged TEV (1:5 ratio) overnight at 4° C. ZnCl2 was added into the sample at final 15 μM before loading onto a second Ni Sepharose™ excel column. Untagged WRN protein was eluted from the column with buffer A supplemented with 20 mM imidazole, dialyzed overnight into buffer B (50 mM Tris, pH 7.5, 1 mM TCEP, 10% Glycerol) supplemented with 150 mM NaCl and loaded onto a Heparin column. Proteins were eluted with a step gradient of buffer B supplemented with 150 mM, 200 mM, 300 mM and 500 mM NaCl. […]

[2] = tested on: p21 induction in HCT 116 cells; assay: p21 induction in cells (In-Cell Western, p21/GAPDH ratio); assay type: cell-based; settings: 24 h compound incubation, read-out: p21_EC50
Protocol: The colon carcinoma cell line HCT 116 was obtained from ATCC and cultured in growth medium consisting of Mccoy's 5A Medium (Gibco 16600108) supplemented with 10% FBS (Transgene FS201-02) and 100 units/mL penicillin-streptomycin (Gibco 15140122) and maintained at 37° C. under 5% CO2. On the day of seeding, 2,000 cells in 30 μL of culture media were plated per well to Poly-D-Lysine 384 Well Black Clear Plates (Biocoat 356663) and incubated overnight at 37° C. under 5% CO2. The following day, compounds were serially diluted in DMSO for a total of 11 test concentrations. The typical starting concentration of compounds was 10 μM with 2-fold dilutions. Next, 150 nL of diluted compound was added in duplicate to the assay plate, using an Echo 655 (Labcyte). The plate was centrifuged at 500 RPM for 1 min and then incubated at 37° C. under 5% CO2 for 24 h. After 24 h, medium was removed, and cells were fixed by adding 40 μL of 4% paraformaldehyde solution to each well and incubated for 20 min at room temperature. The plate was then washed 4 times with 100 μL per well of wash buffer (PBS with 0.1% Tween-20) using a microplate washer. Next, 30 μL of ice-cold methanol was added to each well and the plate was incubated at −20° C. for 10 min. The plate was washed 4 times with 100 μL per well of wash buffer by a microplate washer, then 30 μL per well of blocking buffer ((Intercept PBS blocking buffer (LI-COR 927-70001) with 0.05% Tween-20)) was added and the plate was incubated at room temperature with shaking for 2 h. Next, to each test well, 20 μL of primary antibody solution (p21 Wafl/CIP (12D1) RabbitmAb (Cell Signaling Technologies 2947) diluted 1:1000 and GAPDH (D4C6R) Mouse mAb (Cell Signaling Technologies 97166) diluted 1:2000 in blocking buffer) was added and the plate was placed at 4° C., overnight. The following day, the plate was washed 5 times with 100 μL per well of wash buffer using a microplate washer for 5 min. 20 μL per well of secondary antibody (IRDye 680CW Goat anti-Mouse IgG (H+L) (LI-COR 926-68070) diluted 1:2000 in Blocking Buffer and IRDye 800CW Goat anti-Rabbit IgG (H+L) (LI-COR 926-32211) diluted 1:2000 in Blocking Buffer) was then added and the plate was stored for 2 h in the dark at room temperature with shaking. The plate was then washed 4 times with 100 μL per well of wash buffer again using a microplate washer. Finally, the p21 signal and the GAPDH signal were quantified using a LI-COR Odyssey CLx Imager machine reading at 800 nm and 700 nm, respectively. Each plate contained DMSO control (low control) and an internal reference WRN inhibitor (high control) respectively. For quantitation, the 800 nm/700 nm ratio was calculated for each well to give fold p21 induction and then percent activation for each compound well was calculated as follows (100×(ratio cpd well-ratio low control)/(ratio high control−ratio low control). EC50 values for each compound was generated after non-linear regression curve fitting using commercially available software.

Sequence of human Werner helicase (WRN, amino acids 517-1235 with L1074F point mutation) (Q14191 other isoform, or with tags, fused parts or gaps L1074F (already in the parent)): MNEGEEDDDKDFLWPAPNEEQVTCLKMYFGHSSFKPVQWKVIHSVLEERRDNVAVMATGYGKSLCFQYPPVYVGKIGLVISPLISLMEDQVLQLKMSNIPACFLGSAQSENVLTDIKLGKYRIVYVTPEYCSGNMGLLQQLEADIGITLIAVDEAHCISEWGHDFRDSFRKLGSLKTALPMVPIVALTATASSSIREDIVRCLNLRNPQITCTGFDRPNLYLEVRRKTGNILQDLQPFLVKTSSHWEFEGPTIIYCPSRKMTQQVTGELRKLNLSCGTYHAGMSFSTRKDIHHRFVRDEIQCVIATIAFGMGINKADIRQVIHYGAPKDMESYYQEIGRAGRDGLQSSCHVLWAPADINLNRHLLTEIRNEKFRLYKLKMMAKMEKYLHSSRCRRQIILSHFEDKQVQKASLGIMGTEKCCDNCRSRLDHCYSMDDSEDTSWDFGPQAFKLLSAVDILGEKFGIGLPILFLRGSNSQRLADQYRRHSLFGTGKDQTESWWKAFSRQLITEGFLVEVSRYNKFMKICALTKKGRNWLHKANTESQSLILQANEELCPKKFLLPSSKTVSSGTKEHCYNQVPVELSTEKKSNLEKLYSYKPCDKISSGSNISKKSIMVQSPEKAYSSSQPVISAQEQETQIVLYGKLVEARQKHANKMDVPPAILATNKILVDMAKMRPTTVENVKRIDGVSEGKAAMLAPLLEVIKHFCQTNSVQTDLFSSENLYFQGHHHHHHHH

IC50 [1] | EC50 ([2]; Homo sapiens) | SMILES | other results
≤ 5 nM |  | CCc1c(N2CCN(C(=O)c3ncnc(C)c3O)[C@H]3CC[C@@H]32)c(=O)c2nn(-c3ccnc(OC)c3)nc2n1CC(=O)Nc1ccc(C(F)(F)F)cc1Cl [Compound I-6, N-(2-chloro-4-(trifluoromethyl)phenyl)-2-(5-ethyl-6-((1S,6S)-5-(5-hydroxy-6-methylpyrimidine-4-carbonyl)-2,5-diazabicyclo[4.2.0]octan-2-yl)-2-(2-methoxypyridin-4-yl)-7-oxo-2,7-dihydro-4H-[1,2,3]triazolo[4,5-b]pyridin-4-yl)acetamide] | 
5 to 50 nM |  | CCc1c(N2CCN(C(=O)c3ncnc(C)c3O)CC2)c(=O)c2nn(C3=CCOCC3)nc2n1CC(=O)Nc1ccc(C(F)(F)F)cc1Cl [Compound I-13, N-(2-chloro-4-(trifluoromethyl)phenyl)-2-(2-(3,6-dihydro-2H-pyran-4-yl)-5-ethyl-6-(4-(5-hydroxy-6-methylpyrimidine-4-carbonyl)piperazin-1-yl)-7-oxo-2,7-dihydro-4H-[1,2,3]triazolo[4,5-b]pyridin-4-yl)acetamide] | 
5 to 50 nM |  | CCc1c(N2CCN(C(=O)c3ncnc(C)c3O)[C@H]3CC[C@@H]32)c(=O)c2nn(-c3ccnc(OC)c3)nc2n1CC(=O)NC1CC2(CCC2)C1 [Compound I-86, 2-{5-ethyl-6-[(1S,6S)-5-(5-hydroxy-6-methylpyrimidine-4-carbonyl)-2,5-diazabicyclo[4.2.0]octan-2-yl]-2-(2-methoxypyridin-4-yl)-7-oxo-2H,4H,7H-[1,2,3]triazolo[4,5-b]pyridin-4-yl}-N-{spiro[3.3]heptan-2-yl}acetamide] | 
5 to 50 nM |  | CCc1c(N2CCN(C(=O)c3ncnc(C)c3O)CC2)c(=O)c2nn(-c3cc(C)n(C)n3)nc2n1CC(=O)Nc1ccc(C(F)(F)F)cc1Cl [Compound I-16, N-(2-chloro-4-(trifluoromethyl)phenyl)-2-(2-(1,5-dimethyl-1H-pyrazol-3-yl)-5-ethyl-6-(4-(5-hydroxy-6-methylpyrimidine-4-carbonyl)piperazin-1-yl)-7-oxo-2,7-dihydro-4H-[1,2,3]triazolo[4,5-b]pyridin-4-yl)acetamide] | 
 | ≤ 500 nM | CCc1c(N2CCN(C(=O)c3ncnc(C)c3O)[C@H]3CC[C@@H]32)c(=O)c2nn(C3=CCOC(C)C3)nc2n1CC(=O)NC12CC(C3CC3)(C1)C2 (stereo partly drawn) [Compound I-172, N-{3-cyclopropylbicyclo[1.1.1]pentan-1-yl}-2-{5-ethyl-6-[(1S,6S)-5-(5-hydroxy-6-methylpyrimidine-4-carbonyl)-2,5-diazabicyclo[4.2.0]octan-2-yl]-2-(2-methyl-3,6-dihydro-2H-pyran-4-yl)-7-oxo-2H,4H,7H-[1,2,3]triazolo[4,5-b]pyridin-4-yl}acetamide] | 
 | 500 to 2000 nM | CCc1c(N2CCN(C(=O)c3c(COC)cccc3OC)[C@H]3CC[C@@H]32)c(=O)c2nn(C3=CCOCC3)nc2n1CC(=O)NC12CC(C3CC3)(C1)C2 [Compound I-212, N-{3-cyclopropylbicyclo[1.1.1]pentan-1-yl}-2-[2-(3,6-dihydro-2H-pyran-4-yl)-5-ethyl-6-[(1S,6S)-5-[2-methoxy-6-(methoxymethyl)benzoyl]-2,5-diazabicyclo[4.2.0]octan-2-yl]-7-oxo-2H,4H,7H-[1,2,3]triazolo[4,5-b]pyridin-4-yl]acetamide] | 
 | ≤ 500 nM | CCc1c(N2CCN(C(=O)c3ncnc(C)c3O)[C@H]3CC[C@@H]32)c(=O)c2nn(-c3ccn(C4CC4)n3)nc2n1CC(=O)NC12CC(C(C)C)(C1)C2 [Compound I-60, 2-[2-(1-cyclopropyl-1H-pyrazol-3-yl)-5-ethyl-6-[(1S,6S)-5-(5-hydroxy-6-methylpyrimidine-4-carbonyl)-2,5-diazabicyclo[4.2.0]octan-2-yl]-7-oxo-2H,4H,7H-[1,2,3]triazolo[4,5-b]pyridin-4-yl]-N-[3-(propan-2-yl)bicyclo[1.1.1]pentan-1-yl]acetamide] | 
 |  | CCc1c(N2CCN(C(=O)c3ncnc(C)c3O)[C@H]3CC[C@@H]32)c(=O)c2nn([C@@H]3CC3(F)F)nc2n1CC(=O)Nc1ccc(C(F)(F)F)cc1Cl (single isomer, unassigned) [Compound I-216] | EC50 [2]: ≤ 500 nM
 | ≤ 500 nM | CCc1c(N2CCN(C(=O)c3ncnc(C)c3O)[C@H]3CCC[C@@H]32)c(=O)c2nn(-c3ccnc(OC)c3)nc2n1CC(=O)NC12CC(C3CC3)(C1)C2 [Compound I-33, 2-{6-[(4aS,7aS)-4-(5-hydroxy-6-methylpyrimidine-4-carbonyl)-octahydro-1H-cyclopenta[b]pyrazin-1-yl]-5-ethyl-2-(2-methoxypyridin-4-yl)-7-oxo-2H,4H,7H-[1,2,3]triazolo[4,5-b]pyridin-4-yl}-N-{3-cyclopropylbicyclo[1.1.1]pentan-1-yl}acetamide] | 

From patent US20250129069A1, “TRIAZOLO WRN INHIBITORS” (Nimbus Wadjet, Inc., priority 2023, published 2025)
